From US12678440B2, “Compositions and methods for treating misfolded protein ocular disorders” (CASE WESTERN RESERVE UNIVERSITY, priority 2020, dated 2026)

Assays:
[1] = test system: WT mouse rhodopsin fused with Renilla luciferase (Rluc); test: Rluc reporter counter screen in Hek293 (RHO^WT-Rluc) cells; assay type: cell-based; conditions: for Efficacy, Rluc assay Hek293 (RHO^WT − Rluc): 24 h, DMSO 0%, Evans Blue −100% controls; for EC50: 24 h compound treatment, dose-response, triplicate
Description: Two Hek293 stable cell lines, Hek293 (RHO^WT-Rluc) and Hek293 (RHO^P23H-Rluc) cells were generated which stably express the WT and P23H mutant mouse rhodopsin each fused with a Renilla luciferase (Rluc) for the luciferase reporter assay as previously described. Briefly, the Hek 293 cells (ATCC, Manassas, VA, USA) were transfected with the pcDNA3.1 Zeo containing the cDNA of mouse WT or P23H rhodopsin fused with a Rluc 8 (a gift from Dr. Navine Lambert at Augusta University, Augusta, GA USA) and transfected cells were incubated in Dulbecco's modified Eagle's medium (DMEM, Genesee Scientific, E1 Cajon, CA USA) with 10% fetal bovine serum (FBS, Gibco Laboratories, Gaithersburg, MD USA) for 48 h before addition of 400 μg/mL of Zeocin (InvivoGen, San Diego, CA USA) for positive clone selection. Colonies of cells survived from 1 week of Zeocin selection were collected, and expression of WT and P23H rhodopsin were confirmed by a luciferase assay and immunoblotting of rhodopsin with positive bands of monomers at about 70 kD (FIG. 8). The difference of molecular masses between WT and P23H rhodopsin proteins was due to differences in glycosylation, which was also seen in the NIH3T3 cells expressing the WT and P23H rhodopsin proteins.
The HTS was performed at three facilities, including University of Cincinnati (UC), Case Western Reserve University, and National Center for Advancing Translational Sciences (NCATS), testing a total of six compound collections. These compound collections include: 1) the UC 10K Diversity Set (10,011 compounds), 2) the Life Chemicals 50K Collection (50,560), 3) the Spectrum Collection (2,400 compounds), 4) the LOPAC collection (1,280 compounds), 5) the FDA collection (2,816 compounds), and 6) the NCATS MIPE collection (1,912 compounds). […] For the compound collections 1), 2) and 3), we firstly tested each compound using the P23H rhodopsin luciferase reporter assay at a single dose for once (9.93 to 16.13 μM) in 384-well format, and we identified 2072 compounds with activity scores lower than the cutoff at mean-2SD. Activity scores were normalized using DMSO treated cells as 0% control and the 1 mM Evans Blue treated cells as −100% control. From these hit compounds, we excluded those reported with luciferase inhibitor activities and cherry-picked the rest for hit confirmation. Each hit was tested at 10 μM in the Hek293 (RHO^P23H-Rluc) cells again by the luciferase reporter assay in triplicates, and the confirmed hits with activity scores lower than-50% were then counter screened for their effects on Rluc activity by the recombinant Rluc activity assay, and on WT rhodopsin level by the luciferase reporter assay in the Hek293 (RHO^WT-Rluc) cells at 10 μM in triplicates, respectively. […] Next, we tested the dose responses of these confirmed hits in both the Hek293 (RHO^P23H-Rluc) and the Hek293 (RHO^WT-Rluc) cells and identified compounds that selectively favored the clearance of P23H than WT rhodopsin in a dose-dependent manner (Table 4). For the compound collections 4)-6), we tested each compound directly at 7 or 11 doses using the luciferase reporter assay in the Hek293 (RHO^P23H-Rluc) cells in 1536-well format, and identified 128 compounds with efficacy smaller than-50% and EC50<20 μM.
The Rluc reporter assay has been described before. HTS was undertaken in 384-well format for the UC 10K Diversity Set, Spectrum Collection and the Life Chemicals 50K diversity set, and in 1536-well format for the FDA, LOPAC, and MIPE collections. Using the 384-well format as an example, Hek (RHO^P23H-Rluc) cells were seeded in 384-well white-wall clear-bottom plates (assay plates) at 3×10^5/mL for 40 μL/well by an 8-channel Multiflo liquid dispenser (Bioteck, Winooski, VT USA). The assay plates were centrifuged at 300×g for 30 s and cultured at 37° C. with 5% CO2 overnight. […]

[2] = test system: adRP-causing rhodopsin mutants (T4R, P23H, P53R, C110Y, D190N, P267L); test: High-content imaging of rhodopsin mutants stably expressed in U2OS cells; assay type: cell-based, mouse; conditions: for immunofluorescence intensities of rhodopsin mutants: six adRP mutants
Description: Seven U2OS stable cell lines were generated which separately express the WT and six mutant mouse rhodopsin (T4R, P23H, P53R, C110Y, D190N, P267L) fused with Venus fluorescence protein. Briefly, the U2OS cells (ATCC, Manassas, VA, USA) were transfected with the pcDNA3.1 Zeo containing the cDNA of mouse WT or T4R, P23H, P53R, C110Y, D190N, P267L rhodopsin fused with Venus and transfected cells were incubated in DMEM with 10% FBS for 48 h before addition of 400 μg/mL of Zeocin for positive clone selection. Colonies of cells survived from 1 week of Zeocin selection were collected, and expression of WT and six mutant rhodopsins were confirmed by fluorescence of Venus and immunoblotting of rhodopsin.
To assess the effect of active compounds on the clearance of P23H rhodopsin in mammalian cells, an image-based assay was performed using NIH3T3 (RHO^WT/GFP) and NIH3T3 (RHO^P23H/GFP) cells, as described previously. Briefly, cells were seeded at 5000 cells per well in 384-well plates and incubated at 37° C. in 5% CO2 for 4 hours until cells were attached to the bottom of the plate. Attached cells were treated with compounds for 24 hours. The assay medium was aspirated, and cells were fixed with 4% paraformaldehyde at 20 μL per well for 20 min at room temperature. Cell membranes were permeabilized with PBS containing 0.1% Triton X-100 (PBST) and then incubated with 50 µg/mL 1D4 anti-rhodopsin antibody at 15 μL/well for 1 hour at room temperature. After three washes with 50 μl/well of PBST, cells were incubated with 15 μL/well Cy3-conjugated goat anti-mouse IgG antibody for 1 hour at room temperature. After three washes with 50 μl/well of PBST, cells were incubated in 50 μl/well of PBS containing 2 μg/mL Hoechst 33342 to stain the nuclei. Finally, the immunostained cells were imaged by an ImageExpress High Content Imaging System (MolecularDevices). Immunofluorescence of rhodopsin was measured by MetaXpress software using the mean of total fluorescence of Cy3 channel per cell per well taken from five fields containing 600-1000 intact cells per well. After normalizing the fluorescence intensities of rhodopsin to the DMSO treated cells as 0% and cells immunostained with secondary antibody only as −100%, dose-response curves for each compound were plotted and fitted by a modified Hill function using the Origin software. The high-content imaging experiments for hit validation were performed at the CWRU drug discovery facility, and the high-content imaging analyses for the MTX co-treatment with BafA1 and MG-132 were undertaken at the University of Pittsburgh Drug Discovery Institute.

CC(=O)OC(CC(=O)[O-])C[N+](C)(C)C (stereo not drawn) [CL-001]
Efficacy, Rluc assay Hek293 (RHO^WT − Rluc) [1]: −44.3% | EC50 [1]: 1000 nM | immunofluorescence intensities of rhodopsin mutants [2]: reduced

CC(=O)OC(CC(=O)O)C[N+](C)(C)C (stereo not drawn) [CL-002]
Efficacy, Rluc assay Hek293 (RHO^WT − Rluc) [1]: −62.0% | EC50 [1]: 3400 nM | immunofluorescence intensities of rhodopsin mutants [2]: reduced

O=C(O)C1=CC=CC(O)C1O (stereo not drawn) [CL-003]
Efficacy, Rluc assay Hek293 (RHO^WT − Rluc) [1]: −37.7% | EC50 [1]: 1500 nM

CC(O)CN (stereo not drawn) [CL-004]
Efficacy, Rluc assay Hek293 (RHO^WT − Rluc) [1]: −45.5% | EC50 [1]: 920 nM

NCC(=O)COP(=O)(O)O [CL-005]
Efficacy, Rluc assay Hek293 (RHO^WT − Rluc) [1]: −57.9% | EC50 [1]: 4200 nM | immunofluorescence intensities of rhodopsin mutants [2]: reduced

O=C(NC1CCNCC1)c1n[nH]cc1NC(=O)c1c(Cl)cccc1Cl [CL-006]
Efficacy, Rluc assay Hek293 (RHO^WT − Rluc) [1]: −42.9% | EC50 [1]: 1520 nM

CCn1cnc2c(N)ncnc21 [CL-007]
Efficacy, Rluc assay Hek293 (RHO^WT − Rluc) [1]: −51.7% | EC50 [1]: 11000 nM | immunofluorescence intensities of rhodopsin mutants [2]: reduced

CCC(C)(O)C(O)C(=O)O (stereo not drawn) [CL-008]
Efficacy, Rluc assay Hek293 (RHO^WT − Rluc) [1]: −52.7% | EC50 [1]: 590 nM

CN(Cc1cnc2nc(N)nc(N)c2n1)c1ccc(C(=O)N[C@@H](CCC(=O)O)C(=O)O)cc1 [CL-009, N-[4-[[(2,4-diamino-6-pteridinyl)methyl]methylamino]benzoyl]-L-glutamic acid]
rhodopsin immunofluorescence in cells expressing the P23H, C110Y, D190N and P267L mutants ([2]; seven doses): dose-dependent reductions
